Results as given in ChEMBL document CHEMBL5344473, “Inhibition of N-type calcium channels by phenoxyaniline and sulfonamide analogues” (RSC Med Chem, 2024).

Biological target: Voltage-dependent N-type calcium channel subunit alpha-1B (Homo sapiens, UniProt Q00975)
Experiment: Inhibition of Cav2.2 in human SH-SY5Y cells assessed as inhibition of calcium influx measured for 300 secs in presence of Cav1 blocker, nifedipine by FLIPR assay
Assay type: cell-based
Conditions: not given

Voltage-dependent N-type calcium channel subunit alpha-1B, sequence (Q00975 whole entry): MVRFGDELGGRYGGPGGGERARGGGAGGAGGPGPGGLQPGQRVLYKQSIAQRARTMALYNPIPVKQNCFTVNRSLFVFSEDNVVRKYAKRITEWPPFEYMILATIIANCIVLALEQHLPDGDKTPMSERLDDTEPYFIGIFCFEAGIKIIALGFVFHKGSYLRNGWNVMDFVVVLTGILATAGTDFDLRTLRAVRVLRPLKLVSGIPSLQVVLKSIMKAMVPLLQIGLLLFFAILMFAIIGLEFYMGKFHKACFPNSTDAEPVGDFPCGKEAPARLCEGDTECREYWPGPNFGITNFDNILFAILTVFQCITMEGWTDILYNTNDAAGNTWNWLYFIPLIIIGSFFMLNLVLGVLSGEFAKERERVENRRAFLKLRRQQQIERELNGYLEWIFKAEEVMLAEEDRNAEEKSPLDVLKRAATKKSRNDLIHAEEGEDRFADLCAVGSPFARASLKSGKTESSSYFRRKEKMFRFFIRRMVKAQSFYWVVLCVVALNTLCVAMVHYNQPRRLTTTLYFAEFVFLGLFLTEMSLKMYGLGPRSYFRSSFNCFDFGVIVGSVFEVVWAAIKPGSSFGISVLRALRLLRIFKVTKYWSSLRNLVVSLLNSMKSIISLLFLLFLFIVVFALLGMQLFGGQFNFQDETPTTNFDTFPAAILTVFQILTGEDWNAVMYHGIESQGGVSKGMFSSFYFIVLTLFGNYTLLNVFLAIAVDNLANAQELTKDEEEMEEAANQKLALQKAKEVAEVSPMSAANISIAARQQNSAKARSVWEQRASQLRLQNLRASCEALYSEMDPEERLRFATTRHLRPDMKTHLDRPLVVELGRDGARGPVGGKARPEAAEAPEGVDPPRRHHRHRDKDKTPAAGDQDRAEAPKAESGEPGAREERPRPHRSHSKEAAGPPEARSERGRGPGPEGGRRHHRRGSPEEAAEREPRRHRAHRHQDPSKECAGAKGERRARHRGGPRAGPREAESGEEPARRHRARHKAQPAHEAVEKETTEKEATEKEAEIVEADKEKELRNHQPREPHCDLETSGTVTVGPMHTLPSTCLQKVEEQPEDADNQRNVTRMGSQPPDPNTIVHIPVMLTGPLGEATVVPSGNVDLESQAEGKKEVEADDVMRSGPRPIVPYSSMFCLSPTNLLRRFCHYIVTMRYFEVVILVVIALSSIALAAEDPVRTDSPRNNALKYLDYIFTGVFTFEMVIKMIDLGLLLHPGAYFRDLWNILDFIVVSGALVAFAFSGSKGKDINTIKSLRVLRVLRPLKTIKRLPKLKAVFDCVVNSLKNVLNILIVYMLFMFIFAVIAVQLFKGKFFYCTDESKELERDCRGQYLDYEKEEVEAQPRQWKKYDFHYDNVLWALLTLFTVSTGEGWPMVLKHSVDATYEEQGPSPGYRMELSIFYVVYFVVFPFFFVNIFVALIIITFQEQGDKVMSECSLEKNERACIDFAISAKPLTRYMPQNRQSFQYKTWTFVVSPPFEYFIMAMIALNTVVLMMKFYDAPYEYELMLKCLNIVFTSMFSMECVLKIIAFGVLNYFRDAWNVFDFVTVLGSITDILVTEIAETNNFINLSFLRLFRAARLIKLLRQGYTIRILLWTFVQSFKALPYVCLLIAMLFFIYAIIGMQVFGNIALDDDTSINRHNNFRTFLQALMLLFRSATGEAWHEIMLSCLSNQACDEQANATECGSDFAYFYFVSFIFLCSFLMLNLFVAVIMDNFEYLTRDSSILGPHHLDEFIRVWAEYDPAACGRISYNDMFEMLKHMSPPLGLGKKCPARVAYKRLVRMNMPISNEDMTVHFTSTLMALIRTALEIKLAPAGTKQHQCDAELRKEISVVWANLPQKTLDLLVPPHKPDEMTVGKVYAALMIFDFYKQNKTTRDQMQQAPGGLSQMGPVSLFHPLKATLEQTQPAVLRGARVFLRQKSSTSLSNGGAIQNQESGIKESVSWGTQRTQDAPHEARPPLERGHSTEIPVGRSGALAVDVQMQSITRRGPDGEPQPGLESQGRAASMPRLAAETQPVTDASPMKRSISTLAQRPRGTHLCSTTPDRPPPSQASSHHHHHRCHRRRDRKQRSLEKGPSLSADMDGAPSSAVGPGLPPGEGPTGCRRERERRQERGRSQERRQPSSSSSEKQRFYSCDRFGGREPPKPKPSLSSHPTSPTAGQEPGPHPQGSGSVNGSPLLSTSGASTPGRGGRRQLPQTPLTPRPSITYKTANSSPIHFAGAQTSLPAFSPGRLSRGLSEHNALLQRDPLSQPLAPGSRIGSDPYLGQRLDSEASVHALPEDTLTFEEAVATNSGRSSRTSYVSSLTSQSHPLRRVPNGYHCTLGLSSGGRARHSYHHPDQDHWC

IC50	Compound
24.3 µM	CC(C)[C@H]1c2ccc(F)cc2CC[C@@]1(CCN(C)CCCc1nc2ccccc2[nH]1)OC(=O)C1CC1
51 µM	FC(F)(F)c1ccc(Oc2ccccc2NCc2ccc(OCCCN3CCCC3)cc2)cc1
50 µM	FC(F)(F)c1ccc(Oc2ccc(NCc3ccc(OCCCN4CCCC4)cc3)cc2)cc1
33 µM	Fc1ccc(Oc2ccccc2NCc2ccc(OCCCn3ccnc3)cc2)cc1
58 µM	CNCCCOc1ccc(CNc2ccccc2Oc2ccc(C(F)(F)F)cc2)cc1
19 µM	N#Cc1ccc(Oc2ccc(NCc3ccc(OCCCN4CCCCC4)cc3)cc2)cc1
20 µM	Fc1ccc(Oc2cccc(NCc3ccc(OCCCN4CCCCC4)cc3)c2)cc1
36 µM	c1ccc(Oc2ccc(NCc3ccc(OCCCN4CCCC4)cc3)cc2)cc1
68 µM	Fc1ccc(Oc2ccc(NCc3ccc(OCCCn4ccnc4)cc3)cc2)cc1

The next lines start with the molecule.

Compound	IC50
Fc1ccc(Oc2ccc(NCc3ccc(OCCCN4CCCC4)cc3)cc2)cc1	48 µM
c1ccc(Oc2cccc(NCc3ccc(OCCCN4CCCCC4)cc3)c2)cc1	63 µM
N#Cc1ccc(Oc2ccc(NCc3ccc(OCCCN4CCCC4)cc3)cc2)cc1	28 µM
c1ccc(Oc2cccc(NCc3ccc(OCCCn4ccnc4)cc3)c2)cc1	68 µM
CN(C)CCCOc1ccc(S(=O)(=O)Nc2cccc(Oc3ccccc3)c2)cc1	10 µM
N#Cc1ccc(Oc2ccc(NCc3ccc(OCCCn4ccnc4)cc3)cc2)cc1	75 µM
CN(C)CCCOc1ccc(CNc2ccc(Oc3ccc(F)cc3)cc2)cc1	39 µM

Biological target: Voltage-dependent T-type calcium channel subunit alpha-1H (Homo sapiens, UniProt O95180)
Experiment: Inhibition of human recombinant Cav3.2 alpha1 subunit expressed in HEK293T cells assessed as inhibition of calcium influx measured for 300 secs by FLIPR assay
Assay type: cell-based
Conditions: not given

Voltage-dependent T-type calcium channel subunit alpha-1H, sequence (O95180 whole entry): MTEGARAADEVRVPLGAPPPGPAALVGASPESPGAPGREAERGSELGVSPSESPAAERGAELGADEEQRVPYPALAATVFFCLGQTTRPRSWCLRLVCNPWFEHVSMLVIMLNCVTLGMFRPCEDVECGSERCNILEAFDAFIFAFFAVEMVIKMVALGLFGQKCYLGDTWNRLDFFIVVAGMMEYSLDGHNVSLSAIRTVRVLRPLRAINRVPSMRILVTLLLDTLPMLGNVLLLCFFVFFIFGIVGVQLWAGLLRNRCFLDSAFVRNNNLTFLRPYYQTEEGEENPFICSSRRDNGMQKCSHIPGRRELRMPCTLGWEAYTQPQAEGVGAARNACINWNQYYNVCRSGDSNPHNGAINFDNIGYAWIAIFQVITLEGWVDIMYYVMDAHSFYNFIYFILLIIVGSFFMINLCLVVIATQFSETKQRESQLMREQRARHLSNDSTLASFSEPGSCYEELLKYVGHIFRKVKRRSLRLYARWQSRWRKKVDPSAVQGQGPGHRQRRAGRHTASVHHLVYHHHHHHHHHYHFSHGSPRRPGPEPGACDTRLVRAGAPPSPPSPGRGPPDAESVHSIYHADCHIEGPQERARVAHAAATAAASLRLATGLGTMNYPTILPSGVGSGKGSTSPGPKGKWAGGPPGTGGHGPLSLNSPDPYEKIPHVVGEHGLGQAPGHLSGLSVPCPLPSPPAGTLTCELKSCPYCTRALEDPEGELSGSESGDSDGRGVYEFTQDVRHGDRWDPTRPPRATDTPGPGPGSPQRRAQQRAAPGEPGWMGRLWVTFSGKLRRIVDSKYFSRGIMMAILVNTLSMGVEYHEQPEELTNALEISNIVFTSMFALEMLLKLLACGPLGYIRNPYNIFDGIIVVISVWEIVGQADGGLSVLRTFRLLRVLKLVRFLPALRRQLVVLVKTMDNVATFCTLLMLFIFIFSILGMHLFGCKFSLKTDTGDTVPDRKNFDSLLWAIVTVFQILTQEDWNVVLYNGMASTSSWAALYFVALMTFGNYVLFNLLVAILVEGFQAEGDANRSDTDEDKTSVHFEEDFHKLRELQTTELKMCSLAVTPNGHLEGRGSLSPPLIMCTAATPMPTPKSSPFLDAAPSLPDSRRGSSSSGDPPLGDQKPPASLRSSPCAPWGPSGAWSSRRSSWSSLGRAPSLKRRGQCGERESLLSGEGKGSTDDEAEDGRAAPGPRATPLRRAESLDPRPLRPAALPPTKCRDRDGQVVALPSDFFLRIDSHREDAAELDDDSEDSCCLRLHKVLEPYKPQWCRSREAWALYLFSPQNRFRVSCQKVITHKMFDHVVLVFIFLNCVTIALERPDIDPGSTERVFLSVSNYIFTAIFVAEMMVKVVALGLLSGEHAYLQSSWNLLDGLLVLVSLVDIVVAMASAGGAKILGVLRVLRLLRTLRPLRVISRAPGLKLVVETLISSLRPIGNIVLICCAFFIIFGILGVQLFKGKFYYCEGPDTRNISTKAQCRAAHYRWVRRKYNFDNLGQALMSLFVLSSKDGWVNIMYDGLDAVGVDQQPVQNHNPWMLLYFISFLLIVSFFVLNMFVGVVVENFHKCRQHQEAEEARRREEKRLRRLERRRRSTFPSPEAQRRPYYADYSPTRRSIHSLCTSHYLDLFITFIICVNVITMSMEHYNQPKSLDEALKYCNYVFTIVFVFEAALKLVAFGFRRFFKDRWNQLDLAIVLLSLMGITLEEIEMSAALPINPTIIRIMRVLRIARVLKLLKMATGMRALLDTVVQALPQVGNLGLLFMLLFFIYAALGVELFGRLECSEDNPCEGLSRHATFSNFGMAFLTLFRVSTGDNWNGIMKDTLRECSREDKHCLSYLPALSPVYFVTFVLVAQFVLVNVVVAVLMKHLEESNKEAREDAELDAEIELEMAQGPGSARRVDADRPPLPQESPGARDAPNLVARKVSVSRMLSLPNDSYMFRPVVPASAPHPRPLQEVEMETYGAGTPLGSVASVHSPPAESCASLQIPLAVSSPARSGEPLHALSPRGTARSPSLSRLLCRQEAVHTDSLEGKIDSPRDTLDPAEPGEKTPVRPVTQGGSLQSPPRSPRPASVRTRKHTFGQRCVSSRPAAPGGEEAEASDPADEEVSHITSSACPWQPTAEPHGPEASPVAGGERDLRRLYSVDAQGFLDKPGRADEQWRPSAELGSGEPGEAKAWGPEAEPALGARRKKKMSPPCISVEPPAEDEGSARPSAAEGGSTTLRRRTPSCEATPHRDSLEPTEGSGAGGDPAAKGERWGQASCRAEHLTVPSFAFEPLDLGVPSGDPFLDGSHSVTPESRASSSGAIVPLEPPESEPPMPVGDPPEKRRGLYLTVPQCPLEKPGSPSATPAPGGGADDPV

IC50	Compound
110 µM	FC(F)(F)c1ccc(Oc2ccccc2NCc2ccc(OCCCN3CCCC3)cc2)cc1
182 µM	FC(F)(F)c1ccc(Oc2ccc(NCc3ccc(OCCCN4CCCC4)cc3)cc2)cc1
196 µM	Fc1ccc(Oc2ccccc2NCc2ccc(OCCCn3ccnc3)cc2)cc1
204 µM	CNCCCOc1ccc(CNc2ccccc2Oc2ccc(C(F)(F)F)cc2)cc1
22 µM	N#Cc1ccc(Oc2ccc(NCc3ccc(OCCCN4CCCCC4)cc3)cc2)cc1
292 µM	Fc1ccc(Oc2cccc(NCc3ccc(OCCCN4CCCCC4)cc3)c2)cc1
201 µM	c1ccc(Oc2ccc(NCc3ccc(OCCCN4CCCC4)cc3)cc2)cc1
337 µM	Fc1ccc(Oc2ccc(NCc3ccc(OCCCn4ccnc4)cc3)cc2)cc1

The remaining lines, values behind:

Compound	IC50
Fc1ccc(Oc2ccc(NCc3ccc(OCCCN4CCCC4)cc3)cc2)cc1	208 µM
c1ccc(Oc2cccc(NCc3ccc(OCCCN4CCCCC4)cc3)c2)cc1	200 µM
N#Cc1ccc(Oc2ccc(NCc3ccc(OCCCN4CCCC4)cc3)cc2)cc1	146 µM
c1ccc(Oc2cccc(NCc3ccc(OCCCn4ccnc4)cc3)c2)cc1	258 µM
CN(C)CCCOc1ccc(S(=O)(=O)Nc2cccc(Oc3ccccc3)c2)cc1	142 µM
N#Cc1ccc(Oc2ccc(NCc3ccc(OCCCn4ccnc4)cc3)cc2)cc1	371 µM
CN(C)CCCOc1ccc(CNc2ccc(Oc3ccc(F)cc3)cc2)cc1	227 µM

System: not listed separately
Experiment: Cytotoxicity against African green monkey COS7 cells assessed as reduction in cell viability measured after 20 hrs by CellTiter-Blue reagent based fluorescence analysis
Conditions: chlorocebus aethiops

Compound	CC50 at 20 h
CN(C)CCCOc1ccc(C(=O)Nc2ccccc2Oc2ccccc2)cc1	> 100 µM

System: not listed separately
Experiment: in vitro
Conditions: Sprague-Dawley, rat, plasma

half-life at 150 µM	Compound
~1.5 h	CN(C)CCCOc1ccc(C(=O)Nc2ccccc2Oc2ccc(F)cc2)cc1
> 60 h	FC(F)(F)c1ccc(Oc2ccc(NCc3ccc(OCCCN4CCCC4)cc3)cc2)cc1
> 60 h	Fc1ccc(Oc2ccccc2NCc2ccc(OCCCn3ccnc3)cc2)cc1
> 60 h	CNCCCOc1ccc(CNc2ccccc2Oc2ccc(C(F)(F)F)cc2)cc1
> 60 h	N#Cc1ccc(Oc2ccc(NCc3ccc(OCCCN4CCCCC4)cc3)cc2)cc1
> 60 h	Fc1ccc(Oc2cccc(NCc3ccc(OCCCN4CCCCC4)cc3)c2)cc1
> 60 h	c1ccc(Oc2ccc(NCc3ccc(OCCCN4CCCC4)cc3)cc2)cc1
> 60 h	Fc1ccc(Oc2ccc(NCc3ccc(OCCCn4ccnc4)cc3)cc2)cc1

Second part, the molecule before the results:

Compound	half-life at 150 µM
Fc1ccc(Oc2ccc(NCc3ccc(OCCCN4CCCC4)cc3)cc2)cc1	> 60 h
c1ccc(Oc2cccc(NCc3ccc(OCCCN4CCCCC4)cc3)c2)cc1	> 60 h
N#Cc1ccc(Oc2ccc(NCc3ccc(OCCCN4CCCC4)cc3)cc2)cc1	> 60 h
c1ccc(Oc2cccc(NCc3ccc(OCCCn4ccnc4)cc3)c2)cc1	> 60 h
CN(C)CCCOc1ccc(S(=O)(=O)Nc2cccc(Oc3ccccc3)c2)cc1	> 60 h
N#Cc1ccc(Oc2ccc(NCc3ccc(OCCCn4ccnc4)cc3)cc2)cc1	> 60 h
CN(C)CCCOc1ccc(CNc2ccc(Oc3ccc(F)cc3)cc2)cc1	> 60 h
